As usually defined, the IC50 is the concentration that inhibits the measured activity by half.

Here are results for one molecule from ChEMBL document CHEMBL5729167, “Substituted dihydrothienopyrimidines and their use as phosphodiesterase inhibitors” (2022).

The test deals with Tumor necrosis factor (Homo sapiens, UniProt P01375). Nature of the test: TNF-alpha RELEASE: Human peripheral blood mononuclear cells (PBMC) were isolated from fresh buffy coats by density centrifugation using lymphoprep tubes (Medinor). Frozen PBMC's were washed in serum free assay buffer (RPMI1640 with 25 mM HEPES, 1% pen/strep, […], 0.5% human serum albumin) and living cells counted. Lipopolysaccharide (1 microg/ml; SIGMA) was added to the cells which were then transferred to 384 well tissue culture plates (5×105 c/ml) containing titrated test compounds. The cells were incubated for 18 hours at 37° C. in serum free assay buffer and the level of TNFalpha in the supernatant was quantitated by AlphaLISA (PerkinElmer) by measuring fluorescence intensity at 615 nm.Results were expressed as IC50 values calculated from inhibition curves using as controls the secretion in LPS stimulated wells and the secretion in cells incubated with 10 microM of a PDE4 inhibitor reference compound.
Chain of Tumor necrosis factor (P01375 whole entry): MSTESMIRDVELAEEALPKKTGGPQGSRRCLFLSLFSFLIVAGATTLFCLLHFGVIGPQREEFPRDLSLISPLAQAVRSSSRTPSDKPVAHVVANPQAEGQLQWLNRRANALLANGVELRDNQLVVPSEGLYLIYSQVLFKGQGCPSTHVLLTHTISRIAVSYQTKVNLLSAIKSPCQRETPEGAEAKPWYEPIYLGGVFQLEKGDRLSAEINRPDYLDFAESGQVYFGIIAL

For `CC(=O)N1CC[C@@H](Nc2nc(N3CC(OC(=O)C4CCOCC4)C3)nc3c2[S@+]([O-])CC3)C1`, the IC50 was above 500 nM.
